Measured values from patent publication US20260060918A1, “HIGH-PERMEABILITY INCLUSION FOR SOOTHING SKIN REDNESS, HEAT, AND PAIN, AND PREPARATION METHOD AND USE THEREOF” (N.O.D TOPIA (GUANGZHOU) BIOTECHNOLOGY CO.,LTD., priority 2023, published 2026).

System: LPS-induced HaCaT cells
Test: Anti-inflammatory and soothing experiment: inflammatory factors secreted by LPS-induced HaCaT cells (ELISA)
Format: cell-based
Conditions: inclusion at volume ratio of 0.3% (dexamethasone 50 µg/mL) with 50 µg/ml LPS, 24 h, supernatant, Mean ± SD, n = 3
Experimental: In vitro stimuli can activate toll-like receptors (TLR-2 and TLR-4) on keratinocytes, leading to the activation of MAPK and NF-κB pathways. Then, the keratinocytes produce IL-1, IL-6, IL-8, TNF-α, and human HBD-2 (defensins), which induces inflammation and causes skin discomfort. The anti-inflammatory effects of the inclusions in Examples 1 to 9 and Comparative Examples 1 to 9 were evaluated by using LPS-induced HaCaT cells as an inflammatory cell model in vitro and detecting inflammatory factors IL-la, […], and TNF-α secreted in cell supernatant by an ELISA kit.
The HaCaT cells were inoculated into a 12-well plate with a density of 2.0-3.0×10^5 cells/well, and incubated in an incubator at a temperature of 37±1° C. and a humidity of 90±5%. After the incubation, the culture plate was taken out, and the original culture solution in the well was discarded. In the sample group, 1 mL of test samples with a volume ratio of 0.3% and 50 µg/ml of LPS culture solution were added to each well; in the model group, only 50 µg/mL of LPS culture solution were added; in the positive control group, 1 mL of dexamethasone ([…]) and LPS ([…]) culture solution was added, while in the blank negative control group, 1 mL of culture solution was only added for culturing 24 h. The supernatant was collected by centrifugation and stored at −80° C. Cytokines of IL-la, […], and TNF-α were determined by using the method described in the ELISA kit, and signals were detected at a wavelength of 450 nm. The content of inflammatory factors was shown in Table 6 by the secretion amount (pg) of IL-i1α, IL-1β, and TNF-α contained in each mL of the culture solution, and triplicate wells were set for each test.

**Q.** For C[C@@H]1C[C@H]2[C@@H]3CCC4=CC(=O)C=C[C@]4(C)[C@@]3(F)[C@@H](O)C[C@]2(C)[C@@]1(O)C(=O)CO [Dexamethasone, dexamethasone], which “IL-1α secretion amount in culture solution” value (model group 63.29 ± 0.39) is on record?
**A.** 36.30 ± 0.21 pg/mL

**Q.** And the “IL-1β secretion amount in culture solution” value (model group 66.29 ± 0.29)?
**A.** 24.67 ± 0.65 pg/mL

**Q.** And the “TNF-α secretion amount in culture solution” value (model group 92.33 ± 2.25)?
**A.** 77.27 ± 2.96 pg/mL
